Reference: ChEMBL document CHEMBL5126521, “Analgesic Opioid Ligand Discovery Based on Nonmorphinan Scaffolds Derived from Natural Sources” (J Med Chem, 2022)
Bridge positions count the residues as written; N and C are the ends. Square brackets hold non-standard residues; d marks the D form. Peptide text beside a SMILES is read from it.

Tests used:
[1] = Stability in mouse serum assessed as half life; assay type: ADME, cell-free
[2] = Stability in mouse brain homogenate assessed as half life; assay type: ADME, tissue-based
[3] = Stability in rat brain homogenate assessed as compound remaining measured after 90 mins relative to control; assay type: ADME, tissue-based; details: read-out: Stability
Rattus norvegicus = assay: Antinociceptive activity in rat administered icv by tail pressure test relative to control; assay type: functional; design: concentration or dose not given beside the values
Mu-type opioid receptor [4] = target: T1, Mu-type opioid receptor (Homo sapiens, UniProt P35372); assay: Binding affinity to MOP (unknown origin)
T1 sequence (P35372 whole entry): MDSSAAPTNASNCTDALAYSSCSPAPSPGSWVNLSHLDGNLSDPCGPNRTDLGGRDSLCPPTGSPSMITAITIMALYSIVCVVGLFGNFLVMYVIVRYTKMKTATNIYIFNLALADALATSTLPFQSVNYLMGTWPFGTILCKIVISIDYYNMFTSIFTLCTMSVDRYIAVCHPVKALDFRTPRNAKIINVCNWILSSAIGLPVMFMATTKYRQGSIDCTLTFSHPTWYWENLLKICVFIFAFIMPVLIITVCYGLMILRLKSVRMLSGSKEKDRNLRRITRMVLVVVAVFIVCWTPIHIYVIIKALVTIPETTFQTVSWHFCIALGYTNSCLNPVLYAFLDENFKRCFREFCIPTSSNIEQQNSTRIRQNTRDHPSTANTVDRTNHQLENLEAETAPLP

[5] = target: T2, Delta-type opioid receptor (Homo sapiens, UniProt P41143); assay: Binding affinity to DOP (unknown origin)
T2 sequence (P41143 whole entry): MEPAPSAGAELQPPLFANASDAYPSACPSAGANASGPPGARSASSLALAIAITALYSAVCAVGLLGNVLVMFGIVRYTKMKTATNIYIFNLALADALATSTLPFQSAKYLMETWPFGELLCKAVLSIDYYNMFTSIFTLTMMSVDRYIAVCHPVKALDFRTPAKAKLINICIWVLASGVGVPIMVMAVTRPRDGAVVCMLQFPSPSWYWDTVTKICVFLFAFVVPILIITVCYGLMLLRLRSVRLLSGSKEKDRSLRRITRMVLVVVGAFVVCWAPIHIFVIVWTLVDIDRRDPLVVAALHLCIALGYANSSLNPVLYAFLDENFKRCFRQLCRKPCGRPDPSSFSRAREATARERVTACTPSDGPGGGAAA

Mu-type opioid receptor [6] = target: Mu-type opioid receptor (Cavia porcellus, UniProt P97266); assay: Antagonist activity at guinea pig ileum MOP; assay type: functional, tissue-based
Chain of Mu-type opioid receptor (Cavia porcellus, UniProt P97266) (P97266 whole entry): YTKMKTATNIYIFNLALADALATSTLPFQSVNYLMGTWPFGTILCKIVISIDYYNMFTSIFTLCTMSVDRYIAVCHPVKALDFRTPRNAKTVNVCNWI

Mu-type opioid receptor [7] = target: Mu-type opioid receptor (Mus musculus, UniProt P42866); assay: Antagonist activity at mouse vas deferns MOP; assay type: functional
Chain of Mu-type opioid receptor (Mus musculus, UniProt P42866) (P42866 whole entry): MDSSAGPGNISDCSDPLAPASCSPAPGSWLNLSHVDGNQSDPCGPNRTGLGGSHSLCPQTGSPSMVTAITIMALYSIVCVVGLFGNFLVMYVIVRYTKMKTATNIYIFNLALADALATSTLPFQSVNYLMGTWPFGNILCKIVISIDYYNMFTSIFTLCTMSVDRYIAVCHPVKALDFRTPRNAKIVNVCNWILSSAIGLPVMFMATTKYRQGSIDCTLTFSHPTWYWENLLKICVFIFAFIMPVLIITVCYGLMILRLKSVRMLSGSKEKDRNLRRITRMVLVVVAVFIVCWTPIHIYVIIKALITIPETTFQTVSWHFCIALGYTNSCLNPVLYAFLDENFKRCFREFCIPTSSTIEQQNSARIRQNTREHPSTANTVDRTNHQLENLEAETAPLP

Mu-type opioid receptor [8] = target: T1, Mu-type opioid receptor; assay: Displacement of [3H]DAMGO from MOP (unknown origin) stably expressed in HEK293 cells by liquid scintillation counter analysis; assay type: cell-based
[9] = target: T2, Delta-type opioid receptor; assay: Displacement of [3H]DPDPE from DOP (unknown origin) stably expressed in HEK293 cells by liquid scintillation counter analysis; assay type: cell-based
Mu-type opioid receptor [10] = target: T1, Mu-type opioid receptor; assay: Agonist activity at MOP (unknown origin) stably expressed in HEK293 cells assessed as forskolin stimulated cAMP accumulation incubated for 30 mins by radioactivity based scintillation counter analysis; assay type: functional, cell-based
Mu-type opioid receptor [11] = target: T1, Mu-type opioid receptor; assay: Agonist activity at MOP (unknown origin) stably expressed in HEK293 cells assessed as forskolin stimulated cAMP accumulation incubated for 30 mins by radioactivity based scintillation counter analysis relative to control; assay type: functional, cell-based; details: filed as agonist
Mus musculus [12] = assay: Antinociceptive activity in mouse administered icv; assay type: functional
Mu-type opioid receptor [13] = target: T1, Mu-type opioid receptor; assay: Agonist activity at human recombinant MOP expressed in CHO cells by calcium mobilization assay; assay type: functional, cell-based
Mus musculus [14] = assay: Antinociceptive activity in Swiss albino mouse assessed tail flick response in warm water administered icv; assay type: functional
[15] = target: Delta-type opioid receptor (Rattus norvegicus, UniProt P33533); assay: Inhibition of Wistar rat brain membrane DOP; assay type: cell membranes
Chain of Delta-type opioid receptor (Rattus norvegicus, UniProt P33533) (P33533 whole entry): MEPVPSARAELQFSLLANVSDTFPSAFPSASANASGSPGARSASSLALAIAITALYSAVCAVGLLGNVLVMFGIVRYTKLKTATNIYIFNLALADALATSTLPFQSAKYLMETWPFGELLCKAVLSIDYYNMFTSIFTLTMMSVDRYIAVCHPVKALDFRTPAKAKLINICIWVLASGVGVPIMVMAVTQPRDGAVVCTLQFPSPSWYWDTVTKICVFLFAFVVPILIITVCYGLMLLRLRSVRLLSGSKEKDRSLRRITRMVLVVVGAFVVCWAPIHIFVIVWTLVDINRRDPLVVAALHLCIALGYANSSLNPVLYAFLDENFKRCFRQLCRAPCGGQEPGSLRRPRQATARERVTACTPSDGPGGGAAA

Mu-type opioid receptor [16] = target: Mu-type opioid receptor (Rattus norvegicus, UniProt P33535); assay: Inhibition of Wistar rat brain membrane MOP; assay type: cell membranes
Chain of Mu-type opioid receptor (Rattus norvegicus, UniProt P33535) (P33535 whole entry): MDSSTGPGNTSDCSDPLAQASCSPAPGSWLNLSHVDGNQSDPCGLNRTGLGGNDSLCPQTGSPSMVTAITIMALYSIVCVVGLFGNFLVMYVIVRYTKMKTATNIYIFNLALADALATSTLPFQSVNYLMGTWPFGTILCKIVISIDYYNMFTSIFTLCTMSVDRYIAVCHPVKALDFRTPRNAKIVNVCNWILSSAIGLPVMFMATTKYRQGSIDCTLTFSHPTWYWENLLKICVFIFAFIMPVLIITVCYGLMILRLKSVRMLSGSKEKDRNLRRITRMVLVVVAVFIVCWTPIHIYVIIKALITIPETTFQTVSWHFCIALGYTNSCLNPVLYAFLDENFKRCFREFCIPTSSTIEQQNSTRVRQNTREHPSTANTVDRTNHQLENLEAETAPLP

CN[C@H](C)C(=O)O
half-life [1]: ≥ 5 h
half-life [2]: ≥ 5 h

Cc1cc(O)cc(C)c1C[C@H](N)C(=O)N[C@@H]1CCCCNC(=O)C[C@@H](C(N)=O)NC(=O)[C@H](c2ccc(F)cc2)NC(=O)[C@H](c2ccccc2)NC1=O
remaining at […] [3]: 93%

C[C@@H](NC(=O)[C@@H](N)Cc1ccc(O)cc1)C(=O)N[C@@H](Cc1ccccc1)C(=O)NCC(=O)O (H-Y[dA]FG-OH)
Activity (Rattus norvegicus): 25%
Ki (Mu-type opioid receptor [4]): 11.9 nM
Ki [5]: 1800 nM
IC50 (Mu-type opioid receptor [6]): 34.5 nM
IC50 (Mu-type opioid receptor [7]): 263 nM

C=C(C(N)=O)[C@@H](NC(=O)[C@H](Cc1ccccc1)NC(=O)[C@@H](C)N(C)C(=O)[C@@H](N)Cc1c(C)cc(O)cc1C)c1ccco1
Ki (Mu-type opioid receptor [8]): 0.014 nM
Ki [9]: 47.2 nM
EC50 (Mu-type opioid receptor [10]): 0.00201 nM
Emax (Mu-type opioid receptor [11]): 96.9%
half-life [1]: ≥ 5 h
half-life [2]: ≥ 5 h

NC(=O)[C@@H]1CC(=O)NCCCC[C@@H](NC(=O)[C@@H](N)Cc2ccc(O)cc2)C(=O)N[C@@H](c2ccc(F)cc2F)C(=O)N[C@@H](c2ccccc2)C(=O)N1
remaining at […] [3]: 93%

C[C@@H](NC(=O)[C@@H](N)Cc1ccc(O)cc1)C(=O)N[C@@H](Cc1ccccc1)C(N)=O
Activity (Rattus norvegicus): <0.2%
IC50 (Mu-type opioid receptor [6]): 262 nM
IC50 (Mu-type opioid receptor [7]): 4050 nM

C=C(C(N)=O)[C@@H](NC(=O)[C@H](Cc1c[nH]c2ccccc12)NC(=O)[C@@H](C)N(C)C(=O)[C@@H](N)Cc1ccc(O)cc1)c1ccccc1
Ki (Mu-type opioid receptor [8]): 0.58 nM
Ki [9]: 3990 nM
EC50 (Mu-type opioid receptor [10]): 2.27 nM
Emax (Mu-type opioid receptor [11]): 88.3%

C[C@@H](NC(=O)[C@@H](N)Cc1ccc(O)cc1)C(=O)N[C@@H](Cc1ccccc1)C(=O)NCC(=O)N[C@@H](Cc1ccc(O)cc1)C(=O)N1CCC[C@H]1C(=O)N[C@@H](CO)C(N)=O
Activity (Rattus norvegicus): <0.05%

N=C(N)NCCC[C@@H](NC(=O)[C@@H](N)Cc1ccc(O)cc1)C(=O)N[C@@H](Cc1ccccc1)C(=O)NCC(=O)N[C@@H](Cc1ccc(O)cc1)C(N)=O
IC50 (Mu-type opioid receptor [6]): 160 nM
ED50 (Mus musculus [12]): 20.2 pmol

C=C(C(=O)O)[C@@H](N)c1ccccc1
half-life [1]: ≥ 5 h
half-life [2]: ≥ 5 h

Cc1cc(O)cc(C)c1C[C@H](N)C(=O)N[C@@H]1CCCCNC(=O)C[C@@H](C(N)=O)NC(=O)[C@H](c2ccccc2)NC(=O)[C@H](c2ccc(F)cc2F)NC1=O
remaining at […] [3]: 93%

Cc1ccccc1[C@@H]1NC(=O)[C@H](NC(=O)[C@@H](N)Cc2c(C)cc(O)cc2C)CCCCNC(=O)C[C@@H](C(N)=O)NC(=O)[C@H](c2ccccc2)NC1=O
EC50 (Mu-type opioid receptor [13]): 5.62 nM
ED50 (Mus musculus [14]): 0.03 µg
IC50 [15]: 198 nM
IC50 (Mu-type opioid receptor [16]): 1.09 nM
remaining at […] [3]: 85%

C[C@@H](NC(=O)[C@@H](N)Cc1ccc(O)cc1)C(=O)N[C@@H](Cc1ccccc1)C(=O)NCC(=O)N[C@@H](Cc1ccc(O)cc1)C(N)=O (H-Y[dA]FGY-NH2)
Activity (Rattus norvegicus): 27%
Ki (Mu-type opioid receptor [4]): 0.98 nM
Ki [5]: 88 nM
IC50 (Mu-type opioid receptor [6]): 2.9 nM
IC50 (Mu-type opioid receptor [7]): 23.8 nM

NC(=O)[C@@H]1CC(=O)NCCCC[C@@H](NC(=O)[C@@H](N)Cc2ccc(O)cc2)C(=O)N[C@@H](c2ccccc2)C(=O)N[C@@H](c2ccc(F)cc2)C(=O)N1
remaining at […] [3]: 93%

N[C@@H](Cc1ccc(O)cc1)C(=O)N[C@@H]1CCCCNC(=O)[C@H](Cc2ccccc2)NC(=O)[C@H](Cc2c[nH]c3ccccc23)NC1=O (H-Y[dK]WF; lactam 2-C)
Ki (Mu-type opioid receptor [4]): 0.25 nM
Ki [5]: 38 nM

C=C(C(N)=O)[C@@H](NC(=O)[C@H](Cc1c[nH]c2ccccc12)NC(=O)[C@@H](C)N(C)C(=O)[C@@H](N)Cc1ccc(O)cc1)c1ccco1
Ki (Mu-type opioid receptor [8]): 0.3 nM
Ki [9]: 3100 nM
EC50 (Mu-type opioid receptor [10]): 1.45 nM
Emax (Mu-type opioid receptor [11]): 90.6%

C=C(C(N)=O)[C@@H](NC(=O)[C@H](Cc1ccccc1)NC(=O)[C@@H](C)N(C)C(=O)[C@@H](N)Cc1c(C)cc(O)cc1C)c1ccccc1
Ki (Mu-type opioid receptor [8]): 0.0511 nM
Ki [9]: 55.7 nM
EC50 (Mu-type opioid receptor [10]): 0.000515 nM
Emax (Mu-type opioid receptor [11]): 95.1%
half-life [1]: ≥ 5 h
half-life [2]: ≥ 5 h

Cc1cc(O)cc(C)c1C[C@H](N)C(=O)N[C@@H]1CCCCNC(=O)C[C@@H](C(N)=O)NC(=O)[C@H](c2ccccc2)NC(=O)[C@H](c2ccccc2)NC1=O
EC50 (Mu-type opioid receptor [13]): 1.73 nM
ED50 (Mus musculus [14]): 0.02 µg
IC50 [15]: 400 nM
IC50 (Mu-type opioid receptor [16]): 0.26 nM
remaining at […] [3]: 85%

Cc1cc(O)cc(C)c1C[C@H](N)C(=O)O
half-life [1]: ≥ 5 h
half-life [2]: ≥ 5 h

Cc1cc(O)cc(C)c1C[C@H](N)C(=O)N[C@@H]1CCCCNC(=O)C[C@@H](C(N)=O)NC(=O)[C@H](c2ccccc2)NC(=O)[C@H](c2ccc(F)cc2)NC1=O
remaining at […] [3]: 93%
